Measurements as given in PMC12645437, “Orthogonal IMiD-Degron Pairs Induce Selective Protein Degradation in Cells” (ACS Chemical Biology, 2025).

Columns and labels:
[1] = biological target: AEVK mutant ZF degron fused to EGFP (Homo sapiens, UniProt Q96SW2+Q9UKT9, N149E/Q147A/Q150V/S154K); experiment: Ratiometric EGFP:mCherry flow cytometry degradation assay, 18 h
[2] = biological target: T1, WEIS-EGFP degron in Jurkat cells (Homo sapiens, UniProt Q96SW2+Q9UKT9, N149E/Q147W/Q150I); experiment: Time-course EGFP/mCherry flow cytometry degradation assay; format: cell-based
T1 construct: pLVX-Sprout-IKZF3 130-189aa Q147W N149E Q150I (WEIS); expressed in transfected cells
Protocol: 6 WEIS degron and compound 23 selectivity. Jurkat, ESC, and MM.1S cells were treated for 16 h with the corresponding compound or DMSO control, and the protein abundance was analyzed using multiplexed TMTpro quantification mass spectrometry. […] (A) Jurkat cells were treated with compound 23. (B). Jurkat cells treated with pomalidomide. (C) ESCs were treated with compound 23. (D) ESCs were treated with pomalidomide. (E) MM.1S cells treated with compound 23. […] Values shown are the mean of three biological replicates. WEIS degron and compound 23 kinetic degradation profile. (G) Jurkat cells were transduced with the WEIS-EGFP degron, then incubated with a concentration range of compound 23 (1 pM – 10 μM) for 1–24 h [as shown] and analyzed using flow cytometry. The DMSO-normalized ratiometric values of EGFP/mCherry are shown. (H). The half-maximal (DC50) values from the assay in […] are shown. Mean and SD values are plotted from three biological replicates. […] (J) Jurkat cells were lentivirally transduced with TRIM28 with either N-terminal or C-terminal WEIS degron tag (or untagged control) and HiBit peptide tag, then incubated with a concentration curve of compound 23 (100 pM – 10 μM) for 24 h and analyzed using a HiBit luminescence assay. […] HEK293T cells were lentivirally transduced with one of three POI fusion constructs–NanoLuc, CDK9, or HPRT1–with an N-terminal HA tag and a C-terminal WEIS degron, then incubated with a concentration range of compound 23 (1 nM – 10 μM) for 18 h and analyzed using HA antibody immunoblotting. […] HEK293T cells were lentivirally transduced with NanoLuc with an N-terminal HA tag and a C-terminal WEIS degron, then incubated with a concentration curve of compound 23 (1 nM – 10 μM) for either 6 or 18 h, and analyzed using a NanoGlo luminescence assay. […]
We performed a time-course experiment in which Jurkat cells transduced with the WEIS-EGFP degron were treated with compound 23 at a range of concentrations (1 pM–10 μM) at a selection of time points, and the ratiometric degradation values of EGFP/mCherry were assessed using flow cytometry, as above. […]

HA-HPRT1-WEIS = biological target: T2, HA-HPRT1-WEIS (Homo sapiens, UniProt Q96SW2+Q9UKT9, N149E/Q147W/Q150I); experiment: HA antibody immunoblotting in HEK293T cells; format: cell-based; details: 18 h, Western blot
T2 construct: IKZF3 130aa-142aa 170-189aa fused to EGFP; HPRT1 (protein of interest, fusion partner N-terminal of the degron); expressed in transfected cells; host or cells: HEK293T, lentivirally transduced (Cilantro2-derived plasmid, Addgene #74450, EGFP replaced by HA-POI-WEIS)

[3] = tested on: embryonic stem cells (ESCs); experiment: TMTpro quantitative proteomics, 16 h; details: 10 μM
Protocol: Quantitative proteomics screens were carried out in untransduced Jurkat cells, embryonic stem cells (ESCs), and the multiple myeloma cell line, MM.1S. We used Jurkat cells, as our work up to this point had employed this cell line, and we selected ESCs and MM.1S cells as they express known CRBN neosubstrates, including IKZF1, IKZF3, RAB28, RNF166, SALL4, ZFP91, and ZNF827.
Proteomics - cell lysis and protein digestion
The viability of Jurkat cells was tested after 16-h treatment with corresponding chemicals
viable cells in each condition. Next, ~10^7 cells per condition were collected by centrifugation (1000 rpm), washed twice with ice-cold PBS, and lysed in RIPA buffer [50 mM HEPES pH 7.4, 150 mM NaCl, 1% sodium deoxycholate, 1% NP-40, 0.1% SDS, 10 mM sodium pyrophosphate, 10 mM β-glycerophosphate, 2.5 mM MgCl2, 200 µM TCEP, phosphatase and protease inhibitor cocktail (in-house)], to produce whole cell extracts. Whole-cell extracts were sonicated, and protein concentrations were determined using the Bradford assay. Protein extracts (100 µg) were subjected to disulfide bond reduction with 5 mM TCEP (10 min) and alkylation with 25 mM chloroacetamide (20 min). Methanol–chloroform precipitation was performed prior to protease digestion. […]

[4] = biological target: WEIS mutant ZF degron fused to EGFP (Homo sapiens, UniProt Q96SW2+Q9UKT9, N149E/Q147W/Q150I); experiment: Ratiometric EGFP:mCherry flow cytometry degradation assay, 18 h
[5] = biological target: WNIQ mutant ZF degron fused to EGFP (Homo sapiens, UniProt Q96SW2+Q9UKT9, Q147W/Q150I/S154Q); experiment: as above
WNIQ mutant ZF degron fused to EGFP, sequence (Q9UKT9 130-189 Q147W/Q150I/S154Q): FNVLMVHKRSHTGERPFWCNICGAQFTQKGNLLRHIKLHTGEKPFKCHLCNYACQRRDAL
WNIQ mutant ZF degron fused to EGFP, sequence (Q96SW2 whole entry, the tested form may be a part): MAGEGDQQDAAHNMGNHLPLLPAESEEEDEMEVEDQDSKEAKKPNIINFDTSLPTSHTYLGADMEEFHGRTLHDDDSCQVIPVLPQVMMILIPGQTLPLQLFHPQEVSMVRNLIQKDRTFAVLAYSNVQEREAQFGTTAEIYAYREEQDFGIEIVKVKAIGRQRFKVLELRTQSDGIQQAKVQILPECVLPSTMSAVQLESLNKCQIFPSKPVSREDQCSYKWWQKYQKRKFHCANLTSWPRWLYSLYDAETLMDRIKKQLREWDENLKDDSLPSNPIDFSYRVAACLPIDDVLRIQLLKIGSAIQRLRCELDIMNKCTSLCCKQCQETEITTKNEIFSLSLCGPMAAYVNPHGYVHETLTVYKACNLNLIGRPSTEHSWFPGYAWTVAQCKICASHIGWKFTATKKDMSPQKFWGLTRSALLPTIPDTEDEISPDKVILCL
WNIQ mutant ZF degron fused to EGFP, sequence (Q16531 whole entry partner, the tested form may be a part): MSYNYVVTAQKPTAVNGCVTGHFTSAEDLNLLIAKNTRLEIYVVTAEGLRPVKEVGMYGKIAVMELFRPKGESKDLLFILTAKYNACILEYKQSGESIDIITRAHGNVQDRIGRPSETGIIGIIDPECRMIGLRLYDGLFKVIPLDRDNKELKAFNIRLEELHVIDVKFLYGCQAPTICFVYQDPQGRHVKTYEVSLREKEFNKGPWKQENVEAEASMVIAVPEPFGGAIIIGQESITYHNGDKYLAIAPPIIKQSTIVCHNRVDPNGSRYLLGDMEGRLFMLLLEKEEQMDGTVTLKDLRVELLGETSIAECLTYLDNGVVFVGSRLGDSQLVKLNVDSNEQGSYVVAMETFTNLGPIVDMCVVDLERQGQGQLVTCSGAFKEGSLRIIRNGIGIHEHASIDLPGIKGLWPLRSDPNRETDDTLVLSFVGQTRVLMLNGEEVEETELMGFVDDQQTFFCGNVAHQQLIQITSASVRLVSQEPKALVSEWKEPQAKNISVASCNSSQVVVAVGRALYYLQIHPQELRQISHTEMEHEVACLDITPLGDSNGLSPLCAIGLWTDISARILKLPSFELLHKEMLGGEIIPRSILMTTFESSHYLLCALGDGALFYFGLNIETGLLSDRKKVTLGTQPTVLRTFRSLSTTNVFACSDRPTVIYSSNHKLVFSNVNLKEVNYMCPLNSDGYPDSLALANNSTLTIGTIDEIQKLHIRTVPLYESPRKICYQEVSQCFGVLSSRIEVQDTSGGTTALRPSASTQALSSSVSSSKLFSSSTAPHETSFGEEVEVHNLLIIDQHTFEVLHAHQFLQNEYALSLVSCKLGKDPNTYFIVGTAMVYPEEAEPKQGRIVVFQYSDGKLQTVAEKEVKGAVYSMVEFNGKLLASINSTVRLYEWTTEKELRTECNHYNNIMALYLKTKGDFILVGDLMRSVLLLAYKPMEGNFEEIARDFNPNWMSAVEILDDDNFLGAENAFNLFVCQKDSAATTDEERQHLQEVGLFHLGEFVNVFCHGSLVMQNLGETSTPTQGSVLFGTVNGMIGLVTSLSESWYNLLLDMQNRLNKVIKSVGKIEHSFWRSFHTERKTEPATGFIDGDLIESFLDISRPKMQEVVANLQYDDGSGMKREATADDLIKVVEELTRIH

WEIS mutant ZF degron fused to EGFP, sequence (Q9UKT9 130-189 Q147W/N149E/Q150I): as the sequence (Q9UKT9 130-189 Q147W/Q150I/S154Q) above, with N20E, Q25S counted along it
WEIS mutant ZF degron fused to EGFP, sequence (Q96SW2 whole entry, the tested form may be a part): as the sequence (Q96SW2 whole entry, the tested form may be a part) above
WEIS mutant ZF degron fused to EGFP, sequence (Q16531 whole entry partner, the tested form may be a part): as the sequence (Q16531 whole entry partner, the tested form may be a part) above
T1 sequence (Q9UKT9 130-189 Q147W/N149E/Q150I): as the sequence (Q9UKT9 130-189 Q147W/Q150I/S154Q) above, with N20E, Q25S counted along it
T1 sequence (Q96SW2 whole entry): as the sequence (Q96SW2 whole entry, the tested form may be a part) above
T1 sequence (Q16531 whole entry partner): as the sequence (Q16531 whole entry partner, the tested form may be a part) above
AEVK mutant ZF degron fused to EGFP, sequence (Q9UKT9 130-189 Q147A/N149E/Q150V/S154K): as the sequence (Q9UKT9 130-189 Q147W/Q150I/S154Q) above, with W18A, N20E, I21V, Q25K counted along it
AEVK mutant ZF degron fused to EGFP, sequence (Q96SW2 whole entry, the tested form may be a part): as the sequence (Q96SW2 whole entry, the tested form may be a part) above
AEVK mutant ZF degron fused to EGFP, sequence (Q16531 whole entry partner, the tested form may be a part): as the sequence (Q16531 whole entry partner, the tested form may be a part) above
T2 sequence (Q9UKT9 130-189 Q147W/N149E/Q150I): as the sequence (Q9UKT9 130-189 Q147W/Q150I/S154Q) above, with N20E, Q25S counted along it
T2 sequence (Q96SW2 whole entry, the tested form may be a part): as the sequence (Q96SW2 whole entry, the tested form may be a part) above

Compound | DC50 ([1]; AEVK, Jurkat, 18 h) | pDC50 ([1]; AEVK, Jurkat, 18 h) | Selectivity (WT/mutant) ([1]; DC50(WT)/DC50(AEVK)) | DC50 ([2]; time point 1 h) | DC50 ([2]; time point 6 h) | DC50 ([2]; time point 24 h) | D max (HA-HPRT1-WEIS) | DC50 (HA-HPRT1-WEIS) | proteins degraded (quantitative proteomics) [3] | Selectivity (WT/mutant) ([4]; DC50(WT)/DC50(WEIS)) | DC50 ([4]; WEIS, Jurkat, 18 h) | pDC50 ([4]; WEIS, Jurkat, 18 h) | Selectivity (WT/mutant) ([5]; DC50(WT)/DC50(WNIQ)) | DC50 ([5]; WNIQ, Jurkat, 18 h) | pDC50 ([5]; WNIQ, Jurkat, 18 h)
CC(C)(C)c1ccc2c(c1)C(=O)N(C1CCC(=O)NC1=O)C2=O (stereo not drawn) [Compound 19] | 0.0275 µM | 7.56 | 28 |  |  |  |  |  |  |  |  |  |  |  | 
CN1CCN(c2ccc3c(c2)C(=O)N(C2CCC(=O)NC2=O)C3=O)CC1 (stereo not drawn) [Compound 23] |  |  |  | 0.0103 µM | 0.0023 µM | 0.0183 µM | 49% | 0.0671 µM | did not induce any protein degradation | 35 | 0.0182 µM | 7.74 | 11.8 | 0.0537 µM | 7.27
